Experimental data as given in patent publication US10167296B2, “Sulfoximine substituted quinazolines for pharmaceutical compositions” (EVOTEC INTERNATIONAL GMBH, priority 2014, dated 2019).

Legend:
[1] = tested on: MNK2 (MNK2a or MNK2b) or MNK1; settings: cell culture cells transfected with MNK2 (MNK2a or MNK2b) or MNK1; cited from earlier work
[2] = biological target: MNK2a (pre-activated GST-MNK2a) (Homo sapiens (Human), UniProt Q9HBH9); assay: MNK2a in vitro kinase assay (assay 1), ADP-Glo; format: biochemical; settings: read-out: Mnk2 IC50
Protocol: A. MNK2a In Vitro Kinase Assay (Assay 1)
The inhibition of kinase activity of MNK2a was assessed using pre-activated GST-MNK2a. The white, 384-well OptiPlate F plates were purchased from PerkinElmer. The ADP-Glo Kinase Assay (including ultra pure ATP) was purchased from Promega (V9103). Activated MNK2a was obtained as described in WO2011/104340. […] ID No. 5 of WO 2011/104340 by the C-terminal —CONH2 group, was purchased from Thermo Fisher Scientific. All other materials were of highest grade commercially available. Compounds are tested in either serial dilutions or single dose concentrations. The compound stock solutions are 10 mM in 100% DMSO The serial compound dilutions are prepared in 100% DMSO followed by 1:27.3 intermediate dilution in assay buffer. The final DMSO concentration in assay will be <3%.
In the 384-well plates 3 μl of test compound from the intermediate dilution is mixed with 4 μl of the activated MNK2 enzyme (final concentration of 10 nM) and 4 μl of the peptide (final concentration of 25 μM)/ultra pure ATP (final concentration of 20 μM), all dissolved in assay buffer. This step is followed by an incubation time of 90 min, then 10 μl of ADP Glo reagent are added, followed by 40 min of incubation. Then 20 μl of kinase detection reagent are admixed. The plates are sealed and after an incubation period of 30 min, the luminescence signal is measured in an Envision reader to determine the amount of produced ADP. All incubation steps are performed at room temperature.
The assay buffer consists of 20 mM HEPES, 2 mM DTT, 0.01% BSA, 20 mM MgCl2 and 0.1% Pluronic F-127.
The luminescent signal generated is proportional to the ADP concentration produced and is correlated with activated MNK2 activity. The analysis of the data is performed by the calculation of the percentage of ATP consumption of activated MNK2 in the presence of the test compound compared to the consumption of ATP in the presence of activated MNK2 without compound. (RLU(sample)−RLU(low control))*100/(RLU(high value)−RLU(low control))
[RLU=Relative Luminescence Units]
Values of more than 100% CTL are normally related to compound/sample specific physico-chemical properties (e.g. solubility, light absorbance, fluorescence).
IC50 values based on dose response curves are calculated with the AssayExplorer software.

[3] = biological target: MNK1a (pre-activated GST-MNK1a) (Homo sapiens (Human), UniProt Q9BUB5); assay: MNK1 in vitro kinase assay (assay 2), Z'-LYTE; format: biochemical; settings: compound concentration of 1 μM, read-out: Mnk1 % Inh
Excerpt: B. MNK1 In Vitro Kinase Assay (Assay 2)
MNK1 Data can be obtained from the MNK1 Z′-LYTE® assay. The MNK1 Z′-LYTE® screening protocol and assay conditions are also described on www.invitrogen.com.
The assay is described as follows:
The Z′-LYTE® biochemical assay employs a fluorescence-based, coupled-enzyme format and is based on the differential sensitivity of phosphorylated and non-phosphorylated peptides to proteolytic cleavage. The peptide substrate is labeled with two fluorophores—one at each end—that make up a FRET pair.
In the primary reaction, the kinase transfers the gamma-phosphate of ATP to a single tyrosine, serine or threonine residue in a synthetic FRET-peptide. In the secondary reaction, a site-specific protease recognizes and cleaves non-phosphorylated FRET-peptides. Phosphorylation of FRET-peptides suppresses cleavage by the Development Reagent. Cleavage disrupts FRET between the donor (i.e., coumarin) and acceptor (i.e., fluorescein) fluorophores on the FRET-peptide, whereas uncleaved, phosphorylated FRET-peptides maintain FRET. A ratiometric method, which calculates the ratio (the Emission Ratio) of donor emission to acceptor emission after excitation of the donor fluorophore at 400 nm, is used to quantitate reaction progress, as shown in the equation below. Emission Ratio=Coumarin Emission(445 nm)/Fluorescein Emission(520 nm)
The inhibition of kinase activity of MNK1a was assessed using pre-activated GST-MNK1a. The 2×MKNK1 (MNK1) mixture is prepared in 50 mM HEPES pH 7.5, 0.01% BRIJ-35, 10 mM MgCl2, 4 mM MnCl2, 1 mM EGTA, 2 mM DTT. The final 10 μL Kinase Reaction consists of 13.5-54 ng MKNK1 (MNK1) and 2 μM Ser/Thr 07 in 50 mM HEPES pH 7.5, 0.01% BRIJ-35, 10 mM MgCl2, 2 mM MnCl2, 1 mM EGTA, 1 mM DTT. After the 1 hour Kinase Reaction incubation, 5 μL of a 1:32768 dilution of Development Reagent A is added.
The Test Compounds are screened in 1% DMSO (final) in the well.
All Peptide/Kinase Mixtures are diluted to a 2×working concentration in the MNK1 Kinase Buffer.
All ATP Solutions are diluted to a 4×working concentration in Kinase Buffer (50 mM HEPES pH 7.5, 0.01% BRIJ-35, 10 mM MgCl2, 1 mM EGTA).
Development Reagent Solution:
The Development Reagent is diluted in Development Buffer
Bar-coded Corning, low volume NBS, 384-well plate (Corning Cat. #3676)
1. 2.5 μL—4×Test Compound
2. 5 μL—2×Peptide/Kinase Mixture
5. 60-minute Kinase Reaction incubation at room temperature
6. 5 μL—Development Reagent Solution
8. 60-minute Development Reaction incubation at room temperature
9. Read on fluorescence plate reader and analyze the data
The following equations are used for each set of data points:
Correction for Background Fluorescence: FISample−FITCFI Ctl Emission Ratio (using values corrected for background fluorescence):Coumarin Emission (445 nm)/Fluorescein Emission (520 nm)
% Phosphorylation (% Phos): 1−((Emission Ratio×F100%)−C100%)/((C0%−C100%)+[Emission Ratio×(F100%−F0%)])*100
% Inhibition: 1−(% PhosSample/% Phos0% Inhibition Ctl)*100 FI=Fluorescence Intensity C100%=Average Coumarin emission signal of the 100% Phos. Control C0%=Average Coumarin emission signal of the 0% Phos. Control F100%=Average Fluorescein emission signal of the 100% Phos. Control F0%=Average Fluorescein emission signal of the 0% Phos. Control
SelectScreen® Kinase Profiling Service uses XLfit from IDBS. The dose response curve is curve fit to model number 205 (sigmoidal dose-response model).

MNK1a (pre-activated GST-MNK1a), sequence (Q9BUB5 other isoform, or with tags, fused parts or gaps): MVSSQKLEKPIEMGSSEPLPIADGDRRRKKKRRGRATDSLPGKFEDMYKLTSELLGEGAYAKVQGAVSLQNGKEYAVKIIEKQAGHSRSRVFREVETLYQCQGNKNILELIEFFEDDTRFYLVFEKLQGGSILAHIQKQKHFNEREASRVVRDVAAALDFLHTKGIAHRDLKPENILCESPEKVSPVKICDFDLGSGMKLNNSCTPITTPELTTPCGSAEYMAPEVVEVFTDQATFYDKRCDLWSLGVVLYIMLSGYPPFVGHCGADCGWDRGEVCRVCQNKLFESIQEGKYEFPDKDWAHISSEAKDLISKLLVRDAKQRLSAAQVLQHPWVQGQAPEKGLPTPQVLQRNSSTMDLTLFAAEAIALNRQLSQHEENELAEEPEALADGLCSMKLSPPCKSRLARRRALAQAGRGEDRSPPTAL
MNK2a (pre-activated GST-MNK2a), sequence (Q9HBH9 whole entry): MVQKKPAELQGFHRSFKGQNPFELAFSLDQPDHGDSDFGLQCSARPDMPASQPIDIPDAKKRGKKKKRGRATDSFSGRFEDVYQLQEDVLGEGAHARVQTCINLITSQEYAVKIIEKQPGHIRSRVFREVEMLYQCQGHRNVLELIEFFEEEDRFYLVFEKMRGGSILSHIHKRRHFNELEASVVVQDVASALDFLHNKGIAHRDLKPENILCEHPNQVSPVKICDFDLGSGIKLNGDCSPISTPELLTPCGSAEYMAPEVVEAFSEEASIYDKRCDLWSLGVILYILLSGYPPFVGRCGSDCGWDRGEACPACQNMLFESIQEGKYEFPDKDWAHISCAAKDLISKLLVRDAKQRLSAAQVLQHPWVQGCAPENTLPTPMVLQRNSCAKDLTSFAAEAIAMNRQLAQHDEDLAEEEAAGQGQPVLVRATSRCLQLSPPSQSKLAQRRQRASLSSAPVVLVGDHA

SMILES | IC50 [2] [nM] | inhibition at 1 µM [3] [%] | reduction of phosphorylated elF4E [1]
Nc1ncnc2n[nH]c(Nc3ccc(F)cc3)c12 [CGP57380] | – | – | strong reduction
COc1c(N=S(C)(C)=O)cc2ncnc(Nc3cccnc3O[C@@H]3CO[C@@H]4CCO[C@@H]43)c2c1C [Example 2.49] | 2.3 | 95 | –
COc1c(N=S2(=O)CC(OC)C2)cc2ncnc(Nc3ccc(F)cc3O[C@H](C)C(=O)NCC(F)(F)F)c2c1C (stereo partly drawn) [Example 2.01] | 2.5 | 103 | –

Further molecules by falling IC50 [2], results first:

IC50 [2] [nM] | inhibition at 1 µM [3] [%] | SMILES | reduction of phosphorylated elF4E [1]
3.7 | 98 | COc1c(N=S(C)(C)=O)cc2ncnc(Nc3ccc(F)cc3OC3CCOCC3)c2c1C [Example 2.14] | –
1.6 | 106 | COc1c(N=S2(=O)CCC2)cc2ncnc(Nc3ccc(F)cc3O[C@@H]3CO[C@H]4[C@@H]3OC[C@H]4OC)c2c1C [Example 2.41] | –
